Legend:
adult human liver cells = test: Glucose challenge assay; format: cell-based; conditions: 0-25 mM, 2 hours
Method: Adult liver cells were treated with Ad-CMV-PDX-1 and growth factors for 5 days. The cells were plated in 6-well plates at 10^5 cells per well.
For time course analysis the cells were preincubated for 2 hours in Krebs-Ringer buffer (KRB) containing 0.1% BSA, followed by incubation for the indicated period in media containing 2 mM or 25 mM glucose. At each time point media samples were analyzed for insulin (Ultra Sensitive Human Insulin RIA kit—Linco Research) and C-peptide secretion (Human C-Peptide RIA kit—Linco Research).
Glucose dose response; Cells were preincubated for 2 hours with KRB containing 0.1% BSA, washed and challenged thereafter with increasing concentrations of D-Glucose or 2-deoxy-Glucose (0-25 mM) for 2 hours. At the end of the incubation period at 25 mM glucose, the cells were washed with KRB and incubated for additional 2 hours in 2 mM glucose containing media.

human liver cells = test: Quantitative real-time RT-PCR gene expression in human liver cells; format: cell-based; conditions: without PDX-1
Method: Liver cells were cultured in Dulbecco's minimal essential medium (1 gr/L glucose) with or without growth factors as indicated separately (EGF 20 ng/ml, Cytolab Ltd.; Nicotinamide 10 mM, Sigma), and were infected by recombinant adenoviruses (500 moi) for 5 days. The recombinant adenoviruses used in this study: Ad-RIP-GFP-CMV-PDX-1, Ad-CMV-PDX-1, Ad-CMV-hIns^40, Ad-CMV-GFP (Clontech, BD Biosciences).
Alternatively, quantitative real-time RT-PCR, was performed using ABI Prism 7000 sequence Detection system (Applied Biosystems).
Amplification conditions included initiation at 50° C. for 2 minutes, denaturation at 95° C. for 10 minutes, followed by 40 cycles, each cycle included denaturation at 95° C. for 15 seconds and annealing at 60° C. for 1 minute, using the TaqMan PCR Master Mix (Applied Biosystems). Relative quantitative analysis was according to ABI prism 7000 SDS software, using the 2^(−ΔCt) equation. The mRNA levels were corrected for human β-actin mRNA.

| Compound | C-peptide secretion in transdifferentiated liver cells (adult human liver cells) | PDX-1 independent effect on pancreatic gene expression (human liver cells) |
| --- | --- | --- |
| O=CC[C@@H](O)[C@H](O)[C@H](O)CO [2-DOG, 2-deoxy-glucose] | did not trigger C-peptide secretion | – |
| NC(=O)c1cccnc1 [nicotinamide] | – | Neither nicotinamide nor EGF alone or their combination exhibited PDX-1 independent effect |
| EGF: epidermal growth factor, soluble factor added to liver cell cultures (NSDSECPLSHDGYCLHDGVCMYIEALDKYACNCVVGYIGERCQYRDLKWWELR; UniProt P01133 971-1023, looked up) | – | Neither nicotinamide nor EGF alone or their combination exhibited PDX-1 independent effect |

Source: US8778899B2, “Methods of inducing regulated pancreatic hormone production in non-pancreatic islet tissues” (priority 1999, dated 2014)
